Literature values in PMC9006653 (The Journal of Biological Chemistry, 2022).

Columns and labels:
[1] = tested on: five cancer cell lines
[2] = tested on: 10 human tumor cell lines

For cycloviolacin O2 [cyO2], the “fold more active than 11 Möbius cyclotides” value [1] is listed as “over ten-fold” and the “fold more potent (cytotoxicity) compared to varv A and varv F” value [2] is listed as “over 20 fold”.
